Experimental data taken from paper PMC6695355, “Alanine Scanning Studies of the Antimicrobial Peptide Aurein 1.2” (Probiotics and Antimicrobial Proteins, 2018).
In brackets after ≈: the same amount, converted by molar mass. Where a SMILES comes first, the peptide text is derived from it.

What was measured:
[1] = test system: C. albicans ATCC 10231 biofilm; type: cell-based, Candida albicans; conditions: ATCC 10231, 24 h
Method in brief: (§1)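 Broth microdilution per CLSI, 1–512 μg/mL; bacteria 0.5 × 10^5 CFU/mL in MHB, 37 °C 18 h; C. albicans 2 × 10^3 CFU/mL in RPMI-1640, 24 h; MIC = lowest concentration visibly inhibiting growth. MBEC: 24-h biofilms, PBS-rinsed, compound 24 h at 37 °C, resazurin read after 1 h. MBIC: compound with inoculum 24 h, then resazurin 1 h; cut-off ≤10% reduction versus controls.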

[2] = test system: C. albicans ATCC 10231; type: cell-based, Candida albicans; conditions: ATCC 10231, 24 h
Method in brief: as §1

[3] = test system: C. albicans ATCC 10231 biofilm formation; type: cell-based, Candida albicans; conditions: ATCC 10231, 24 h
Method in brief: as §1

[4] = test system: P. aeruginosa ATCC 9027 biofilm; type: cell-based, Pseudomonas aeruginosa; conditions: ATCC 9027, 24 h
Method in brief: as §1

[5] = test system: P. aeruginosa ATCC 9027; type: cell-based, Pseudomonas aeruginosa; conditions: ATCC 9027, 18 h
Method in brief: as §1

[6] = test system: P. aeruginosa ATCC 9027 biofilm formation; type: cell-based, Pseudomonas aeruginosa; conditions: ATCC 9027, 24 h
Method in brief: as §1

[7] = test system: human red blood cells (RBCs); test: Hemolysis assay; type: cell-based; conditions: red cells of human, 1 h
Method in brief: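 Fresh EDTA-anticoagulated human erythrocytes were PBS-washed and used at 4% (v/v) with peptide at 1–256 μg/mL in PBS for 1 h at 37 °C. Hemoglobin release in the supernatant was read at 540 nm. PBS set 0% and 1% Triton X-100 set 100% hemolysis; run in triplicate.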

[8] = test system: S. aureus ATCC 25923 biofilm; type: cell-based, Staphylococcus aureus; conditions: ATCC 25923, 24 h
Method in brief: as §1

[9] = test system: S. aureus ATCC 25923; type: cell-based, Staphylococcus aureus; conditions: ATCC 25923, 18 h
Method in brief: as §1

[10] = test system: S. aureus ATCC 25923 biofilm formation; type: cell-based, Staphylococcus aureus; conditions: ATCC 25923, 24 h
Method in brief: as §1

[11] = test system: E. faecalis PCM 2673; type: cell-based, Enterococcus faecalis; conditions: PCM 2673, 18 h
Method in brief: as §1

[12] = test system: E. faecalis PCM 2673 biofilm formation; type: cell-based, Enterococcus faecalis; conditions: 24 h
Method in brief: as §1

[13] = test system: E. faecalis PCM 2673 biofilm; type: cell-based, Enterococcus faecalis; conditions: 24 h
Method in brief: as §1

[14] = type: physicochemical; conditions: pH 7.4
[15] = test system: E. coli ATCC 25922 biofilm formation; type: cell-based, Escherichia coli; conditions: ATCC 25922, 24 h
Method in brief: as §1

[16] = test system: E. coli ATCC 25922; type: cell-based, Escherichia coli; conditions: ATCC 25922, 18 h
Method in brief: as §1

[17] = test system: E. coli ATCC 25922 biofilm; type: cell-based, Escherichia coli; conditions: ATCC 25922, 24 h
Method in brief: as §1

[18] = in vitro; type: in vitro ADME; conditions: bovine, serum
Method in brief: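 Peptides incubated in 25% (v/v) fetal bovine serum in PBS at 37 °C, quenched with ice-cold acetonitrile at t0 and 6 h. Intact peptide quantified by RP-HPLC-MS in selected ion recording mode; % remaining = peak area at 6 h / peak area at t0.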

MIC, C. albicans ATCC 10231 [2]	MIC, P. aeruginosa ATCC 9027 [5]	MIC, S. aureus ATCC 25923 [9]	MIC, E. faecalis PCM 2673 [11]	Compound	MBEC, C. albicans ATCC 10231 [1]	MBIC, C. albicans ATCC 10231 [3]	MBEC, P. aeruginosa ATCC 9027 [4]	MBIC, P. aeruginosa ATCC 9027 [6]	Percentage of hemolysis at 1 μg/mL [7]	Percentage of hemolysis at 2 μg/mL [7]	Percentage of hemolysis at 4 μg/mL [7]	Percentage of hemolysis at 8 μg/mL [7]	Percentage of hemolysis at 16 μg/mL [7]	Percentage of hemolysis at 32 μg/mL [7]	Percentage of hemolysis at 64 μg/mL [7]	Percentage of hemolysis at 128 μg/mL [7]	Percentage of hemolysis at 256 μg/mL [7]	MBEC, S. aureus ATCC 25923 [8]	MBIC, S. aureus ATCC 25923 [10]	MBIC, E. faecalis PCM 2673 [12]	further results
> 512 µg/mL	> 512 µg/mL	> 512 µg/mL	512 µg/mL (≈ 360 µM)	CC[C@H](C)[C@H](NC(=O)[C@H](CCCCN)NC(=O)[C@H](C)NC(=O)[C@@H](NC(=O)[C@@H](NC(=O)[C@H](CC(=O)O)NC(=O)[C@H](Cc1ccccc1)NC(=O)[C@H](CC(C)C)NC(=O)CN)[C@@H](C)CC)[C@@H](C)CC)C(=O)N[C@@H](C)C(=O)N[C@@H](CCC(=O)O)C(=O)N[C@@H](CO)C(=O)N[C@@H](Cc1ccccc1)C(N)=O [Peptide K7A] (H-GLFDIIAKIAESF-NH2)	> 512 µg/mL	4 µg/mL	> 512 µg/mL	> 512 µg/mL	0.2%	0.1%	0.0%	0.0%	0.1%	3.4%	0.7%	3.0%	4.6%	> 512 µg/mL	> 512 µg/mL	> 512 µg/mL	MBEC, E. faecalis PCM 2673 [13]: > 512 µg/mL; Solubility in surfactant-free phosphate buffer [14]: poor solubility; MBIC, E. coli ATCC 25922 [15]: 64 µg/mL; MIC, E. coli ATCC 25922 [16]: > 512 µg/mL; MBEC, E. coli ATCC 25922 [17]: > 512 µg/mL; remaining at 6 h, 0.125 mg/mL [18]: 59%
64 µg/mL (≈ 45 µM)	> 512 µg/mL	> 512 µg/mL	64 µg/mL (≈ 45 µM)	CC[C@H](C)[C@H](NC(=O)[C@H](C)NC(=O)[C@H](CCCCN)NC(=O)[C@@H](NC(=O)[C@@H](NC(=O)[C@H](CC(=O)O)NC(=O)[C@H](Cc1ccccc1)NC(=O)[C@H](CC(C)C)NC(=O)CN)[C@@H](C)CC)[C@@H](C)CC)C(=O)N[C@@H](C)C(=O)N[C@@H](CCC(=O)O)C(=O)N[C@@H](CO)C(=O)N[C@@H](Cc1ccccc1)C(N)=O [Peptide K8A] (H-GLFDIIKAIAESF-NH2)	> 512 µg/mL	4 µg/mL	> 512 µg/mL	> 512 µg/mL	0.1%	0.0%	0.0%	0.0%	0.0%	5.5%	16.1%	49.3%	89.6%	> 512 µg/mL	> 512 µg/mL	128 µg/mL	MBEC, E. faecalis PCM 2673 [13]: > 512 µg/mL; Solubility in surfactant-free phosphate buffer [14]: poor solubility; MBIC, E. coli ATCC 25922 [15]: 32 µg/mL; MIC, E. coli ATCC 25922 [16]: 128 µg/mL (≈ 90 µM); MBEC, E. coli ATCC 25922 [17]: > 512 µg/mL; remaining at 6 h, 0.125 mg/mL [18]: 36%
